Test results: US20230381157A1, “RIFABUTIN FOR THE TREATMENT OF ACINETOBACTER BAUMANNII” (University of Southern California, priority 2018, published 2023)
In brackets after ≈: the same amount, converted by molar mass.

Assays:
A. baumannii = assay: MIC, broth microdilution, A. baumannii clinical isolates / strain panel; format: cell-based, Acinetobacter baumannii; settings: for MIC50 / MIC90: A. baumannii strain panel
LAC-4 = format: in vivo, Galleria mellonella; settings: G. mellonella
E. coli = assay: MIC, broth microdilution; format: cell-based; settings: Escherichia coli
Acinetobacter baumannii = assay: Galleria mellonella infection model; format: in vivo
HepG2 = settings: top screen hits; IC50 against A. baumannii HUMC1 in 50% serum

SMILES: CO[C@H]1/C=C/O[C@@]2(C)Oc3c(C)c(O)c4c(c3C2=O)C2=NC3(CCN(CC(C)C)CC3)NC2=C(NC(=O)/C(C)=C\C=C\[C@H](C)[C@H](O)[C@@H](C)[C@@H](O)[C@@H](C)[C@H](OC(C)=O)[C@@H]1C)C4=O [rifabutin]
- Rifabutin MIC (A. baumannii; ARLG-1314, MHII): 6.25 µg/mL
- Rifabutin MIC (A. baumannii; ARLG-1314, RPMI): < 0.05 µg/mL
- Rifabutin MIC (A. baumannii; ARLG-1777, MHII): 6.25 µg/mL
- Rifabutin MIC (A. baumannii; ARLG-1777, RPMI): 3.13 µg/mL
- Rifabutin MIC (A. baumannii; ARLG-1915, MHII): 3.13 µg/mL
- Rifabutin MIC (A. baumannii; ARLG-1915, RPMI): 0.1 µg/mL
- Rifabutin MIC (A. baumannii; ATCC 17978, MHII): 3.12 µg/mL
- Rifabutin MIC (A. baumannii; ATCC 17978, RPMI): < 0.05 µg/mL
- MIC (A. baumannii; Acinetobacter baumannii, A. baumannii (strain not named), MHII): 4 µg/mL (≈ 4.72 µM)
- MIC (A. baumannii; Acinetobacter baumannii, A. baumannii (strain not named), RPMI with serum): 0.031 µg/mL (≈ 0.0366 µM)
- MIC (A. baumannii; Acinetobacter baumannii, A. baumannii VA-AB21, MHII): 3.12 µg/mL (≈ 3.69 µM)
- MIC (A. baumannii; Acinetobacter baumannii, A. baumannii VA-AB21, RPMI): 0.391 µg/mL (≈ 0.462 µM)
- MIC50 (A. baumannii; Acinetobacter baumannii, CAMHB): 3.13 µg/mL (≈ 3.7 µM)
- MIC90 (A. baumannii; Acinetobacter baumannii, CAMHB): 6.25 µg/mL (≈ 7.38 µM)
- MIC50 (A. baumannii; Acinetobacter baumannii, RPMI): 0.39 µg/mL (≈ 0.46 µM)
- MIC90 (A. baumannii; Acinetobacter baumannii, RPMI): 3.13 µg/mL (≈ 3.7 µM)
- MIC (A. baumannii; Acinetobacter baumannii, ATCC17978, A. baumannii ATCC17978 and HUMC1, MHII): 2 µg/mL (≈ 2.36 µM)
- MIC (A. baumannii; Acinetobacter baumannii, ATCC17978, A. baumannii ATCC17978 and HUMC1, RPMI): < 0.0625 µg/mL
- fold lower MIC in RPMI than in Mueller-Hinton-based medium (CAMHB) (A. baumannii; Acinetobacter baumannii, up to): up to 200 fold
- Rifabutin MIC (A. baumannii; HUMC6, MHII): 25 µg/mL
- Rifabutin MIC (A. baumannii; HUMC6, RPMI): 3.13 µg/mL
- Rifabutin MIC (A. baumannii; HUMC10, MHII): 12.5 µg/mL
- Rifabutin MIC (A. baumannii; HUMC10, RPMI): < 0.05 µg/mL
- Rifabutin MIC (A. baumannii; LAC -- 4, MHII): 0.78 µg/mL
- Rifabutin MIC (A. baumannii; LAC -- 4, RPMI): 1.56 µg/mL
- Rifabutin MIC (A. baumannii; LACUSC-01, MHII): 6.25 µg/mL
- Rifabutin MIC (A. baumannii; LACUSC-01, RPMI): < 0.05 µg/mL
- Rifabutin MIC (A. baumannii; NIH1, MHII): 3.13 µg/mL
- Rifabutin MIC (A. baumannii; NIH1, RPMI): 3.13 µg/mL
- Rifabutin MIC (A. baumannii; UH118, MHII): 3.13 µg/mL
- Rifabutin MIC (A. baumannii; UH118, RPMI): 0.2 µg/mL
- Rifabutin MIC (A. baumannii; UH516, MHII): > 25 µg/mL
- Rifabutin MIC (A. baumannii; UH516, RPMI): > 25 µg/mL
- Rifabutin MIC (A. baumannii; UH2207, MHII): 6.25 µg/mL
- Rifabutin MIC (A. baumannii; UH2207, RPMI): 3.13 µg/mL
- Rifabutin MIC (A. baumannii; UH6507, MHII): 3.13 µg/mL
- Rifabutin MIC (A. baumannii; UH6507, RPMI): 0.39 µg/mL
- Rifabutin MIC (A. baumannii; VA-AB21, MHII): 3.12 µg/mL
- Rifabutin MIC (A. baumannii; VA-AB21, RPMI): 0.391 µg/mL
- Rifabutin MIC (A. baumannii; VA-AB74, MHII): 6.25 µg/mL
- Rifabutin MIC (A. baumannii; VA-AB74, RPMI): 3.13 µg/mL
- efficacy RBT vs RIF (LAC-4): no difference in efficacy
- MIC (E. coli; E. coli DH5a, MHII): 6.25 µg/mL (≈ 7.38 µM)
- MIC (E. coli; E. coli JJ1886, MHII): 6.25 µg/mL (≈ 7.38 µM)
- MIC (E. coli; E. coli JJ1886, RPMI): 6.25 µg/mL (≈ 7.38 µM)
- protection, multiple doses (Acinetobacter baumannii; G. mellonella infection model): protective at significantly lower doses as compared to RIF
- lowest efficacious dose (efficacious at doses as low as) (Acinetobacter baumannii; Galleria mellonella, dose-response): 0.1 mg/kg
- Specificity HepG2 (CC50/IC50) (HepG2): 148.31
